US11518763B2 (SCOHIA PHARMA, INC., priority 2018, dated 2022)
Read-outs that look alike come from different tables or passages of the source.

Legend:
[1] = test system: Nqo1 mRNA; assay: Expression of NRF2-downstream gene Nqo1 mRNA in rat kidney and liver after oral administration; assay type: in vivo; details: 17 h, male SD rats, 3 mg/kg oral, about 17 hours after administration, read-out: Nqo1 mRNA expression (fold change vs vehicle)
Experimental: Test Example 2: Activity of Compound on Expression of NRF2-Downstream Gene in Rat Kidney and Liver
For the NRF2-downstream gene, Nqol mRNA was examined in regard to the expression level in kidney. Compounds were prepared into 0.5% methylcellulose (MC, METOLOSE, Shin-Etsu Chemical Co., Ltd.) suspensions, and were orally administered to male SD rats (CLEA Japan, Inc.) in a dose of 5 mL/kg. About 17 hours after the administration, the rats were euthanized under anesthesia, and their kidneys and livers were collected. By using an extraction kit, QIAsymphony RNA kit (QIAGEN, catalog number 931636) or RNeasy 96 Kit (QIAGEN, catalog number 74182), total RNA was extracted. From the total RNA thus obtained, cDNA was produced by using a cDNA synthesis kit, Superscript IV VIVO Master Mix (Thermo Fisher Scientific, catalog number 11754-250). By using the cDNA thus obtained with Taqman Fast Advanced Master Mix (Thermo Fisher Scientific, catalog number 4444557) or Platinum Quantitative PCR SuperMix (Thermo Fisher Scientific, catalog number 11743-500), and primers and a probe, the sequences of SEQ ID NO:1. SEQ ID NO:2, and SEQ ID NO: 3, which are shown in Table 4, real-time quantitative PCR was conducted with 7900HT Fast Real-Time PCR Systems or ViiA7 Fast Real-Time PCR Systems (Applied Biosystems). The expression level of Nqol mRNA in each organ of the rat to which the vehicle, 0.5% MC solution, was administered is defined as 1, and the variation is shown in Table 5.

[2] = molecular target: T1, binding between NRF2 and KEAP1 (biotinylated human KEAP1 protein (Kelch domain), TAMRA-labeled NRF2 peptide) (Homo sapiens, UniProt Q14145); assay: Measurement of activity of inhibiting NRF2 binding (NRF2-KEAP1 TR-FRET); details: inhibition rate relative to control at 100 nM test compound, TR-FRET, 60 min at room temperature; for inhibition at 0.1 µM: read-out: NRF2 binding inhibitory activity (at 100 nM)
T1 construct: biotinylated human KEAP1 protein (Kelch domain); biotin (biotinylated)
T1 sequence (Q14145 321-609 limits assumed): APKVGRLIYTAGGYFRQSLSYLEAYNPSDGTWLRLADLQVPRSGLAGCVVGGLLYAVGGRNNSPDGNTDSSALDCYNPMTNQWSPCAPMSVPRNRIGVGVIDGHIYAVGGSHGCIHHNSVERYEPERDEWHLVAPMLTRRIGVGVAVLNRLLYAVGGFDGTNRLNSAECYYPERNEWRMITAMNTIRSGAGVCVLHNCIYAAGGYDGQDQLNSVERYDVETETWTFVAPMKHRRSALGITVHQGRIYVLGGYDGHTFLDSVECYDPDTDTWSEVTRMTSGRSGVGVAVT

inhibition at 0.1 µM [2] [%]	NRF2 binding inhibitory activity (at 100 nM) ([2]; 0.1 µM) [%]	SMILES	fold induction at 3 mg/kg ([1]; Kidney)	fold induction at 3 mg/kg ([1]; Liver)
100		Cc1c2ccc3c1nnn3CCCOCc1ccc(c(F)c1)C(=O)N1CCc3ccc(cc3C1)C2CC(=O)O (racemic) [Example 21, [18-Fluoro-32-methyl-20-oxo-14-oxa-8,9,10,21-tetraazahexacyclo[19.5.3.2^16,19.1^3,7.0^6,10.0^24,28]dotriaconta-1(26),3(32),4,6,8,16,18,24,27,30-decaen-2-yl]acetic acid]	5	
100		Cc1c2ccc3c1nnn3CCOCCc1ccc(cc1)C(=O)N1CCc3ccc(cc3C1)C2CC(=O)O (racemic) [Example 29, [32-Methyl-20-oxo-13-oxa-8,9,10,21-tetraazahexacyclo[19.5.3.2^16,19.1^3,7.0^6,10.0^24,28]dotriaconta-1(26),3(32),4,6,8,16,18,24,27,30-decaen-2-yl]acetic acid]	5.9	
100		Cc1c2ccc3c1nnn3CCCCCc1ccc(cc1)C(=O)N1CCc3ccc(cc3C1)C2CC(=O)O (stereo not shown) [Example 11, [32-Methyl-20-oxo-8,9,10,21-tetraazahexacyclo[19.5.3.2^16,19.1^3,7.0^6,10.0^24,28]dotriaconta-1(26),3(32),4,6,8,16,18,24,27,30-decaen-2-yl]acetic acid]	8	
100		Cc1c2ccc3c1nnn3CCCOCc1ccc(cc1)C(=O)N1CCc3ccc(cc3C1)C2C(C)(C)C(=O)O (stereo not shown) [Example 55, 2-methyl-2-[32-methyl-20-oxo-14-oxa-8,9,10,21-tetrazahexacyclo[19.5.3.2^16,19.1^3,7.0^6,10.0^24,28]dotriaconta-1(27),3(32),4,6,8,16,18,24(28),25,30-decaen-2-yl]propanoic acid]	6.3	
100		Cc1cc2cc(C)c1C(=O)N1CCc3ccc(cc3C1)C(C(C)(C)C(=O)O)c1ccc3c(nnn3CCCOC2)c1C (stereo not shown) [Example 58, 2-methyl-2-[18,30,32-trimethyl-20-oxo-14-oxa-8,9,10,21-tetrazahexacyclo[19.5.3.2^16,19.1^3,7.0^6,10.0^24,28]dotriaconta-1(27),3(32),4,6,8,16(31),17,19(30),24(28),25-decaen-2-yl]propanoic acid]	4.8	
100		Cc1c2ccc3c1nnn3CCCOCc1cc(Cl)c(c(Cl)c1)C(=O)N1CCc3ccc(cc3C1)C2C(C)(C)C(=O)O (stereo not shown) [Example 60, 2-[18,30-dichloro-32-methyl-20-oxo-14-oxa-8,9,10,21-tetrazahexacyclo[19.5.3.2^16-19.1^3,7.0^6,10.0^24,28]dotriaconta-1(27),3(32),4,6,8,16,18,24(28),25,30-decaen-2-yl]-2-methylpropanoic acid]	2.9	
	100	Cc1c2ccc3c1nnn3CCCCCc1ccc(cc1)C(=O)N1CCc3ccc(cc3C1)C2C(C)(C)C(=O)O (stereo not shown) [Example 62, 2-methyl-2-[32-methyl-20-oxo-8,9,10,21-tetrazahexacyclo[19.5.3.2^16,19.1^3,7.0^6,10.0^24,28]dotriaconta-1(27),3(32),4,6,8,16(31),17,19(30),24(28),25-decaen-2-yl]propanoic acid]	6.9	
100		Cc1c2ccc3c1nnn3CCCCOc1cc(Cl)c(c(Cl)c1)C(=O)N1CCc3ccc(cc3C1)C2C(C)(C)C(=O)O (stereo not shown) [Example 65, 2-[18,30-dichloro-32-methyl-20-oxo-15-oxa-8,9,10,21-tetrazahexacyclo[19.5.3.2^16,19.1^3,7.0^6,10.0^24,28]dotriaconta-1(27),3(32),4,6,8,16(31),17,19(30),24(28),25-decaen-2-yl]-2-methylpropanoic acid]	3.6	

SMILES	inhibition at 0.1 µM [2] [%]	NRF2 binding inhibitory activity (at 100 nM) ([2]; 0.1 µM) [%]	fold induction at 3 mg/kg ([1]; Kidney)	fold induction at 3 mg/kg ([1]; Liver)
Cc1c2ccc3c1nnn3CCCOCc1ccc(cc1)C(=O)N1CCc3ccc(cc3C1)C2CC(=O)O (stereo not shown) [Example 25, [32-Methyl-20-oxo-14-oxa-8,9,10,21-tetraazahexacyclo[19.5.3.2^16,19.1^3,7.0^6,10.0^24,28]dotriaconta-1(26),3(32),4,6,8,16,18,24,27,30-decaen-2-yl]acetic acid]	100		6.5	22.2
